Among the data in ChEMBL document CHEMBL4476880, “beta-arrestin effectors and compositions and methods of use thereof” (2013) are Activity values, retold here.

The structures appear in SMILES notation. The source made the active and inactive calls. The calls are words filed in the database; no cut-off is given here.

The subject of data set [1] is Rattus norvegicus. Description: Effect on vascular and cardiac function in normal anesthetized rat assessed as preservation of stroke volume at 0.1 to 10 ug/kg/min, iv. It is filed as functional, organism-based.
Data set [2] has as its system Canis familiaris. Description: Suppression of mean arterial pressure in paced dog model of acute heart failure at 0.01 to 100 ug/kg/min dosed as dose escalation regime with duration of 30 mins for each dose. In kind it is functional, organism-based. Particulars: Canis lupus familiaris.
Data set [3] has as its system Canis familiaris. Description: Suppression of right arterial pressure in paced dog model of acute heart failure at 0.01 to 100 ug/kg/min dosed as dose escalation regime with duration of 30 mins for each dose. In kind it is functional, organism-based. The settings on record: Canis lupus familiaris.
Data set [4] deals with Rattus norvegicus. The data set can be described thus: Effect on heart rate in normal anesthetized rat at 0.1 to 10 ug/kg/min, iv. In kind it is ADME, organism-based. The settings on record: in vivo.
For data set [5], the system named is Canis familiaris. The data set can be described thus: Preservation of cardiac output in paced dog model of acute heart failure at 0.01 to 100 ug/kg/min dosed as dose escalation regime with duration of 30 mins for each dose. In kind it is functional, organism-based. The settings on record: Canis lupus familiaris.
Data set [6] has as its system Canis familiaris. Description: Effect on renal function parameters in paced dog model of acute heart failure assessed as maintenance of urine potassium at 0.01 to 100 ug/kg/min dosed as dose escalation regime with duration of 30 mins for each dose. In kind it is functional, organism-based. Particulars: Canis lupus familiaris.
For data set [7], the system named is Canis familiaris. Description: Suppression of renal vascular resistance in paced dog model of acute heart failure at 0.01 to 100 ug/kg/min dosed as dose escalation regime with duration of 30 mins for each dose. It is filed as functional, organism-based. Particulars: Canis lupus familiaris.
In data set [8] the test system is Rattus norvegicus. Description: Effect on vascular and cardiac function in normal anesthetized rat assessed as reduction in mean arterial pressure at 0.1 to 10 ug/kg/min, iv. It is filed as functional, organism-based.
Data set [9] relates to Canis familiaris. The data set can be described thus: Increase in urine output in paced dog model of acute heart failure at 0.01 to 100 ug/kg/min dosed as dose escalation regime with duration of 30 mins for each dose. In kind it is functional, organism-based. Particulars: Canis lupus familiaris.
Data set [10] concerns Canis familiaris. The data set can be described thus: Increase in renal blood flow in paced dog model of acute heart failure at 0.01 to 100 ug/kg/min dosed as dose escalation regime with duration of 30 mins for each dose. In kind it is functional, organism-based. Particulars: Canis lupus familiaris.
In data set [11] the test system is Canis familiaris. Description: Increase in urine sodium excretion in paced dog model of acute heart failure at 0.01 to 100 ug/kg/min dosed as dose escalation regime with duration of 30 mins for each dose. In kind it is functional, organism-based. Particulars: Canis lupus familiaris.
The subject of data set [12] is Rattus norvegicus. Description: Effect on vascular and cardiac function in normal anesthetized rat assessed as preservation of pre-recruitable stroke work at 0.1 to 10 ug/kg/min, iv. In kind it is functional, organism-based.
Data set [13] has as its system Rattus norvegicus. Description: Effect on vascular and cardiac function in normal anesthetized rat assessed as increase in slope of end systolic pressure volume relationship at 0.1 to 10 ug/kg/min, iv. In kind it is functional, organism-based.
Data set [14] deals with Canis familiaris. Description: Effect on renal function parameters in paced dog model of acute heart failure assessed as maintenance of glomerular filtration rate at 0.01 to 100 ug/kg/min dosed as dose escalation regime with duration of 30 mins for each dose. In kind it is functional, organism-based. The settings on record: Canis lupus familiaris.
The test system of data set [15] is Rattus norvegicus. Description: Effect on vascular and cardiac function in normal anesthetized rat assessed as reduction in vaso-constriction at 0.1 to 10 ug/kg/min, iv. It is filed as functional, organism-based.
The test system of data set [16] is Canis familiaris. Description: Suppression of systemic vascular resistance in paced dog model of acute heart failure at 0.01 to 100 ug/kg/min dosed as dose escalation regime with duration of 30 mins for each dose. It is filed as functional, organism-based. Particulars: Canis lupus familiaris.
Data set [17] has as its system Canis familiaris. The data set can be described thus: Suppression of pulmonary capillary wedge pressure in paced dog model of acute heart failure at 0.01 to 100 ug/kg/min dosed as dose escalation regime with duration of 30 mins for each dose. In kind it is functional, organism-based. The settings on record: Canis lupus familiaris.

For `CC[C@H](C)[C@H](NC(=O)[C@H](Cc1ccc(O)cc1)NC(=O)[C@@H](NC(=O)[C@H](CCCNC(=N)N)NC(=O)CNC)C(C)C)C(=O)N[C@@H](Cc1cnc[nH]1)C(=O)N1CCC[C@H]1C(=O)N[C@H](C)C(=O)O` [TRV-120027], the result with Rattus norvegicus [1], in the data set on Rattus norvegicus [12], with Rattus norvegicus [13] and with Rattus norvegicus [15] was Active. Further, the Activity entry was “Dose-dependent effect” with Canis familiaris [2]; “Dose-dependent effect” with Canis familiaris [3]; “Non-Toxic” in the data set on Rattus norvegicus [4]; “Dose-dependent effect” in the data set with Canis familiaris [5]; “Dose-dependent effect” in the data set with Canis familiaris [6]; “Dose-dependent effect” in the data set with Canis familiaris [7]. Further, the Activity result in the data set with Rattus norvegicus [8], in the data set on Canis familiaris [9], in the data set on Canis familiaris [10], in the data set on Canis familiaris [11], in the data set on Canis familiaris [14] and with Canis familiaris [16] was “Dose-dependent effect” each time. Further, in the data set on Canis familiaris [17], the Activity result is “Dose-dependent effect”.
